“And” between values parts separate entries of the source, which are not always exact repeats. Equal values may be shown once. Where a name gives a salt, the structure may show the parent alone. Read-outs that look alike come from different tables or passages of the source.
Experiments:
[1] = test system: rabbit eyes with high intraocular pressure induced by hypertonic saline; test: Model of hypertonic saline induced high intraocular pressure rabbit (acute high intraocular pressure model); assay type: in vivo, New Zealand white rabbit; set-up: AUC: unit not given beside the values; details: for AUC: intraocular pressure over 0-5 hours; for Maximum intraocular pressure difference (%) / Maximum intraocular pressure difference (mm Hg): versus physiological saline group
Excerpt: Evaluation of the effect of reducing intraocular pressure in model of hypertonic saline induced high intraocular pressure rabbit (acute high intraocular pressure model)
Experimental animal: New Zealand white rabbit, male, weighing 2.0-3.0 kg. New Zealand white rabbits were purchased from a qualified laboratory animal rabbit farm in Taiwan before the experiment and were raised in the Animal Center of National Chiao Tung University.
Negative control 1: Physiological saline
Negative control 2: Vehicle without test substance (containing 5% mannitol, 20 mM boric acid and 0.125% nonoxynol-9)
Experimental method: male New Zealand white rabbits were weighed and grouped and then anesthetized. 160 μL of hypertonic saline (5% NaCl) was injected into the vitreous bodies of the left and right eyes of the rabbit under anesthesia, so that the rabbit eyes became a state of high intraocular pressure. […] The intraocular pressure (TOP) detection time points were before anesthesia (0 hours) and 0.5, 1, 1.5, 3, and 5 hours after administration.
Maximum intraocular pressure difference: The difference between an individual's TOP readings and the average TOP readings of the negative control group 1 (physiological saline) at the time point at which the maximum response is recorded (J Ocul Pharmacol Ther. 2010 April; 26(2): 125-132)

rabbit eyes [2] = test: Safety margin assay (eye irritation, OECD/OCDE 405); details: Therapeutic index: 2
[3] = test system: rabbit eyes with normal intraocular pressure; test: Evaluation of the effect of decreasing intraocular pressure in a model of rabbit with normal intraocular pressure; assay type: in vivo, New Zealand white rabbit; details: for Intraocular pressure difference (mmHg): at time point of maximum effect
Experimental: Evaluation of the Effect of Decreasing Intraocular Pressure in a Model of Rabbit with Normal Intraocular Pressure
Experimental animal: New Zealand white rabbit, male, weighing more than 2 kg. New Zealand white rabbits were purchased from Huijun Farm (Changhua, Taiwan). After a one-week quarantine period, they were raised in MASTER LABORATORY Co., Ltd under the environmental conditions of 16-22° C., 30-70% relative humidity (RH), 8 hours day/16 hours night.
(1) Evaluation of the Effect of Reducing Intraocular Pressure
After weighing 12 New Zealand white rabbits (2.0-4.0 kg) and grouping them (n=3-6 in each group), the white rabbits were fixed with a wrap.

patients = details: cited from earlier work
[4] = test system: rabbit eyes with high intraocular pressure induced by magnetic beads; test: Model of magnetic bead induced high intraocular pressure rabbit (intraocular pressure >30 mmHg); assay type: in vivo, New Zealand white rabbit
Excerpt: Evaluation of the effect of reducing intraocular pressure in model of magnetic bead induced high intraocular pressure rabbit (high intraocular pressure model with intraocular pressure >30 mmHg)
Experimental animal: New Zealand white rabbit, male, body weight 2.0-3.0 kg. New Zealand white rabbits were purchased from Huijun Farm (Changhua, Taiwan) before the experiment and were raised in the Animal Center of National Chiao Tung University.
Experimental method: After weighing and grouping male New Zealand white rabbits, the New Zealand white rabbits were anesthetized with Zoletil 50 0.2 mL/kg. 50 μL of magnetic bead solution (50 mg/mL, magnetic bead size of 10 μm) was injected into the left and right anterior eye chambers of the rabbit under anesthesia to make rabbit eyes become a state of high intraocular pressure. After the injection to the anterior chamber of the eye, a strong […] iron magnet ring was immediately put around the eye for 10-20 minutes to make the magnetic beads completely block the drainage tissue of the aqueous humor. After disinfecting the eyeball with antibiotics, moisturizing eye ointment was provided to restore the eyeball, and the intraocular pressure rising was waited. […] The experiment was conducted for 2 consecutive days.

MYLK4 = MYLK4 (Homo sapiens (Human), UniProt Q86YV6); test: Assay for inhibitory effect on MYLK-4, LanthaScreen Eu Kinase Binding Assay
YSK4 = YSK4 (Homo sapiens (Human), UniProt Q56UN5); test: Assay for inhibitory effect on YSK-4, Z'-LYTE kinase assay; assay type: biochemical
Experimental: C. Assay for Inhibitory Effect on YSK-4
The experimental procedure referred to the Z′-LYTE Screening Protocol and Assay Conditions provided by ThermoFisher Scientific.
C-1. Material Preparation
Peptide/Kinase Mixture was pre-diluted with Kinase Buffer to 2× working concentration.
ATP solution was pre-diluted with Kinase Buffer (50 mM HEPES pH 7.5, 0.01% BRIJ-35, 10 mM MgCl2, 1 mM EGTA) to 4× working concentration.
The development reagent solution is Novel PKC Lipid Mix, which contains 2 mg/mL Phosphatidyl Serine, 0.2 mg/mL DAG in 20 mM HEPES, pH 7.4 and 0.3% CHAPS, and was pre-diluted 10 fold with development buffer.
1. 100 nL of the above diluted test compound and 2.4 μL of kinase buffer were added to a black 384-well plate (Corning, Cat. NO. 4514), then add 5 μL of the peptide/kinase mixture mentioned above was added thereto, and after that 2.5 μL of ATP solution was added thereto, and the culture plate was shaken for 30 seconds.
2. Next, the culture plate was placed at room temperature and incubated for 60 minutes.
3. After that 5 μL of the development reagent solution was added and the culture plate was shaken for 30 seconds in the dark, and then the data was read and analyzed with a fluorescence plate reader.
In addition, for the kinase, the following control group was prepared and placed on the same culture plate as the kinase:
(1) 0% Phosphorylation Control (100% Inhibition Control)
This control yields 100% cleaved peptide in the Development Reaction.
(2) 100% Phosphorylation Control
A synthetically phosphorylated peptide of the same sequence as the peptide substrate is used as the 100% Phosphorylation Control.
The Phosphorylation percent achieved in a specific reaction well (Experimental group) was calculated based on the 0% Phosphorylation Control and 100% Phosphorylation Control.

rabbit eyes [5] = test: Eye irritation evaluation (OECD/OCDE 405); assay type: in vivo, New Zealand white rabbit
Excerpt: (2) Irritation Evaluation

[6] = test system: rabbit eyes with normal intraocular pressure
Experimental: The maximal effect (Emax) dose evaluation of the intraocular pressure reduction model in normal rabbit
Animals: Male New Zealand white rabbits (n=7/each group);
Administration: 50 μL of the test compound was instilled in the right eye (dosed eye) and 50 μL of the vehicle (without the test compound) in the left eye (control eye) of each experimental animal. The 3 formulation mentioned above were administered once a day for 3 consecutive days.
The intraocular pressure of each animal was measured by Tono-Vet (iCare) before administration (0 hours) and 2, 4, 6 and 8 hours after administration on Day 1 and Day 3.
The maximum magnitude of the reduction in intraocular pressure %=(Intraocular pressure of the control eye−Intraocular pressure of the dosed eye)/Intraocular pressure of the control eye*100
The data presented in this experiment is the data that has removed the unqualified data (white rabbits with an intraocular pressure difference ≥2 mmHg (n=1) in the two eyes on Day 1 and >5 mmHg in the two eyes before the administration on the Day 3 (n=1) have been removed) and removed the rebound high intraocular pressure (n=3).

ROCK1 = ROCK1 (Homo sapiens (Human), UniProt Q13464); test: biochemical
[7] = Content analysis for candidate drug in aqueous humor, iris and ciliary body after administration
Excerpt: (4) Content Analysis for Candidate Drug in Aqueous Humor (AH) after Administration

cornea of rabbit eyes = test: Observation of cornea with a slit lamp after 7 days of administration; assay type: in vivo, New Zealand white rabbit; details: 0.1% eye drops, continuous administration for 7 days, once a day
normal macaques = test: Intraocular pressure in animal model of macaque with normal intraocular pressure; assay type: in vivo; details: eye drop 0.1% or 0.03%
Experimental: The intraocular pressure of animals was measured by a pneumatic tonometer (Model 30™ Pneumatonometer). Animal anesthesia was required before intraocular pressure measurement. After topical administration (once a day), the intraocular pressure of the animals was measured at the set time points.

humans = details: phase III clinical trial; cited from earlier work
[8] = test system: Human Trabecular Meshwork (HTM) cells; test: Expression of MYLK-4 in HTM cells by Western blotting; assay type: cell-based; details: HTM cells treated overnight with 50 μg/mL dexamethasone
Experimental: Expression of MYLK-4 in Cells
Human Trabecular Meshwork (HTM) cells (Cat. NO. 6590) were obtained from ScienCell Research Laboratories. HTM cells were maintained in Trabecular Meshwork Cell Medium (TMCM) (Cat. NO. 6591). TMCM formulated from 500 mL basal medium, 10 mL FBS (Cat. NO. 0010), 5 mL trabecular meshwork cell growth supplement (TMCGS, Cat. NO. 6592) and 5 mL penicillin/streptomycin solution (P/S, Cat. NO. 503). When the cell growth reached 70-80% saturation, the HTM cells were treated overnight with 50 μg/mL dexamethasone (Cat. NO. 4902, Sigma).
The expression of MYLK4 and GAPDH in cell lysates was analyzed by Western blotting method. First, the cells were collected and washed with 1×RIPA (50 mM Tris-HCl, pH 7.4, 150 mM NaCl, 0.25% deoxycholic acid, 0.1% NP-40, 1 mM EDTA, phosphatase inhibitor and protease inhibitor mixture). Next, the cell lysates were separated by SDS-PAGE (sodium dodecyl sulfate polyacrylamide gel electrophoresis) and transferred to PVDF membrane (iBlot™ 2 Transfer Stacks, polyvinylidene fluoride membrane, Invitrogen). Immunoblotting was performed on the membrane with primary antibodies (mouse anti-MYLK4 antibody (1:1,000, Cat. NO. SAB1412951) and mouse anti-GAPDH antibody (1:1,000, Cat. NO. G8795)), wherein GAPDH was used as a loading control. […]

[9] = eye drops containing 0.1% and 0.03% Compound 20

MYLK4, sequence (Q86YV6 whole entry): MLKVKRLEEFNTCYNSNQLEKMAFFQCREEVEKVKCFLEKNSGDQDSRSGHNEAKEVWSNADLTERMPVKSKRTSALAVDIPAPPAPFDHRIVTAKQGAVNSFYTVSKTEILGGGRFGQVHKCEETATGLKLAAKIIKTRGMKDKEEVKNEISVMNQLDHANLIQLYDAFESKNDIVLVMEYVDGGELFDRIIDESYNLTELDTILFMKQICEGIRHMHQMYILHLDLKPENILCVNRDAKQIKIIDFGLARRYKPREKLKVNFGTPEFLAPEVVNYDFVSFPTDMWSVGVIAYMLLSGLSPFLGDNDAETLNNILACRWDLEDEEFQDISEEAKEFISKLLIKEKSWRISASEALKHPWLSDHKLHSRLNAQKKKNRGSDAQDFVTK
YSK4, sequence (Q56UN5 whole entry): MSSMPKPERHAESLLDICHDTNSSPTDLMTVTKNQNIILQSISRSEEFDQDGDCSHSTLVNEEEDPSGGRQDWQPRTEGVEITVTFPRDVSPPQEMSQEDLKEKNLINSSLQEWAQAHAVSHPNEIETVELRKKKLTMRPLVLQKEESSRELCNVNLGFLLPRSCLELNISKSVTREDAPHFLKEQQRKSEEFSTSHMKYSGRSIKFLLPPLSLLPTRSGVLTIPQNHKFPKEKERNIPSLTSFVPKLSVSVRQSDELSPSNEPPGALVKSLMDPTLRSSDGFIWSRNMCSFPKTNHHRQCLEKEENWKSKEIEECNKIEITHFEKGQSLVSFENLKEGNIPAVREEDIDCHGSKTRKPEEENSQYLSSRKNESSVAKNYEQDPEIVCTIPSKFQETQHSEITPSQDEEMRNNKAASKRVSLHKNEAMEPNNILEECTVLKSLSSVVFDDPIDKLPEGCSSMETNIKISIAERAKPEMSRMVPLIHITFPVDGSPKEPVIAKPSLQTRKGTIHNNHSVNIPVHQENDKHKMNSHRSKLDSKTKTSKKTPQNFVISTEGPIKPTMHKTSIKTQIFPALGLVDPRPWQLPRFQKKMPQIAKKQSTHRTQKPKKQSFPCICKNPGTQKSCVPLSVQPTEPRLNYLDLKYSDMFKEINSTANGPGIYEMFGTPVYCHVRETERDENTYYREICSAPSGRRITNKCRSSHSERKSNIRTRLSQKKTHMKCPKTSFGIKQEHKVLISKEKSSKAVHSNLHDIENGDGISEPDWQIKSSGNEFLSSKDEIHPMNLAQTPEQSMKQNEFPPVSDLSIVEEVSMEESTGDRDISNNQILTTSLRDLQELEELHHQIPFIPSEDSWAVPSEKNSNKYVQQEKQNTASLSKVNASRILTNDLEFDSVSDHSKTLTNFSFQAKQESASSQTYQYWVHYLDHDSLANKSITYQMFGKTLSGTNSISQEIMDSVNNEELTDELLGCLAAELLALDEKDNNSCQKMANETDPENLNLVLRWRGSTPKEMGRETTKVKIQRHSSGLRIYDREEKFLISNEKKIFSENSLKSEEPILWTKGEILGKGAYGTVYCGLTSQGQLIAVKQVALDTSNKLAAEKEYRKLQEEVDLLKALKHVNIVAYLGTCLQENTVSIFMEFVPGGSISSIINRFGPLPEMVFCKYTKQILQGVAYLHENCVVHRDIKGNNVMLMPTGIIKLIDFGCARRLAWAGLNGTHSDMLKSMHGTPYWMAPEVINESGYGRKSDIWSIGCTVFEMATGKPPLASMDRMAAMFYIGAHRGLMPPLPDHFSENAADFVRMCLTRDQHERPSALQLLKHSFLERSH
ROCK1, sequence (Q13464 whole entry, species assumed): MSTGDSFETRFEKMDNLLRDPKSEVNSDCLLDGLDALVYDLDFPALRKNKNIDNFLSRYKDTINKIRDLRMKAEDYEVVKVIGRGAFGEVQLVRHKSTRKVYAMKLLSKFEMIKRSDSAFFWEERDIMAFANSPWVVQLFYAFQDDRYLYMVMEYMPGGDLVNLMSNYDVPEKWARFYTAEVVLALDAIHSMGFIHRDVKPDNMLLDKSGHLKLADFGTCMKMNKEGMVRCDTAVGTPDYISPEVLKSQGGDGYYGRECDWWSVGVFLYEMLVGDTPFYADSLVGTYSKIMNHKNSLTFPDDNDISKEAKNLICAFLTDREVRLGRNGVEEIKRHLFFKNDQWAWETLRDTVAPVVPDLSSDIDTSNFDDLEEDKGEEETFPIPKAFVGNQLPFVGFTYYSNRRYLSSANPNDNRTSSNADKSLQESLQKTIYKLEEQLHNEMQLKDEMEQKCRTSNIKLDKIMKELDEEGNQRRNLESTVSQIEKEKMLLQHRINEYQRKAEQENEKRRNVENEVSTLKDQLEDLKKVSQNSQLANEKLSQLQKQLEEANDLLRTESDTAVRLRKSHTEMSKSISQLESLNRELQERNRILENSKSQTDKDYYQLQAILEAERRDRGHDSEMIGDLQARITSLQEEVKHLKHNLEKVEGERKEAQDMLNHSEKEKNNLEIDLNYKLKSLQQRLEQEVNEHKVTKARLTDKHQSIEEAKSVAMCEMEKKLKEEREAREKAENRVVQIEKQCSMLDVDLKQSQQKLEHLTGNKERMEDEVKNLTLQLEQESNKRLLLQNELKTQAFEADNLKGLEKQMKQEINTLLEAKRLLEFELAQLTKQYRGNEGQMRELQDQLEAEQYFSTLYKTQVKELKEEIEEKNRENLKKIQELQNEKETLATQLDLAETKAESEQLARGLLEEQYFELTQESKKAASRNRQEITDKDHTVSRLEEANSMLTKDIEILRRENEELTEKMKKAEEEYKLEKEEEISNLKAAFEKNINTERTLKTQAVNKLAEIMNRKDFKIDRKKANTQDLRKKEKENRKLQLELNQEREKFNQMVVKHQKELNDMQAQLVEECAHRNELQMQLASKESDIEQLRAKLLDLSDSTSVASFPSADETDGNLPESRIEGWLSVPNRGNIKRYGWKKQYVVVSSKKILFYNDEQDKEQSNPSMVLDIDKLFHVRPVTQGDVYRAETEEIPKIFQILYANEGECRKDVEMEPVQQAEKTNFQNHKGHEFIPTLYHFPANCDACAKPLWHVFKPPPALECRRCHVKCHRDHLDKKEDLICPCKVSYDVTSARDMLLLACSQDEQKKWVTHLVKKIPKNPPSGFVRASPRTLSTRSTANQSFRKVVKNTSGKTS

SMILES: Cc1ccc(C(=O)OCc2ccc([C@@H](CN)C(=O)Nc3ccc4cnccc4c3)cc2)c(C)c1 [AR-13324, Netarsudil, reference compound]
- AUC ([1]; dose 0.02%): 132.9
- Maximum intraocular pressure difference (%) ([1]; dose 0.02%): −20.8%
- Maximum intraocular pressure difference (mm Hg) ([1]; dose 0.02%): −7.7 ± 4.2 mm Hg
- difference compared with the physiological saline or the vehicle (t-test) ([1]; eye drop containing 0.02%): no statistically significant difference
- reduction of the intraocular pressure ([1]; eye drop containing 0.02%): about 7.7±4.2 mmHg
- OECD Score: Chemosis (rabbit eyes [2]): 1
- OECD Score: Discharge (rabbit eyes [2]): 2
- OECD Score: Redness (rabbit eyes [2]): 1
- OECD Score: Total (rabbit eyes [2]): 4
- time point at which maximum effect is achieved ([3]; dose 1%): 6 h
- Intraocular pressure difference (mmHg) ([3]; dose 1%): 4.5 mmHg
- efficacy compared with Timolol (patients; patients <25 mmHg): comparable to Timolol
- efficacy compared with Timolol (patients; patients with intraocular pressure >25 mmHg): not as effective as the conventional glaucoma treatment drug Timolol
- Maximum intraocular pressure difference (mmHg) ([4]; dose 0.02%, experiment of Table 13): 3.6 ± 2.1 mmHg
- reduction of intraocular pressure in percent ([4]; eye drop containing 0.02%): about 11.0%
- IC50 (MYLK4): > 1000 nM

SMILES: NC[C@@H](C(=O)Nc1ccc(-c2cn[nH]c2)cc1)c1ccccc1 [Compound 20, (S)—N-(4-(1H-pyrazol-4-yl)phenyl)-3-amino-2-phenylpropanamide dihydrochloride]
- effect in reducing intraocular pressure compared with AR-13324 (t-test) ([1]; 0.1% Compound 20 versus 0.02% AR-13324, p<0.05): significantly better than that of AR-13324
- AUC ([1]; dose 0.1%): 99.1
- Maximum intraocular pressure difference (%) ([1]; dose 0.1%): −40.4%
- Maximum intraocular pressure difference (mm Hg) ([1]; dose 0.1%): −18.0 ± 6.8 mm Hg
- reduction of the intraocular pressure ([1]; eye drop containing 0.1%): about 18.0±6.8 mmHg
- inhibitory effect on YSK4 (in words) (YSK4): simultaneously targets ROCK, MYLK-4 and YSK-4
- eye irritation compared with AR-13324 (0.02%) (rabbit eyes [5]; Compound 20 at 0.1%): lower than AR-13324
- eye irritation (rabbit eyes [5]; [9]): slight
- time point at which maximum effect is achieved ([3]; dose 0.03%): 8 h
- Intraocular pressure difference (mmHg) ([3]; dose 0.03%): 4.9 mmHg
- maximum magnitude of the reduction in intraocular pressure [3, 9]: 4.4-4.9 mmHg
- time of maximum effect (Emax) after administration [3, 9]: 6 to 8 h
- dose dependence of the reduction of intraocular pressure ([6]; 0.01%, 0.03%, 0.1%): exhibits a dose dependent effect
- increase of the reduction in intraocular pressure on Day 3 compared to Day 1 ([6]; 0.03% Compound 20, on average): ~1 mmHg
- The magnitude of intraocular pressure reduction (ΔIOP) (mmHg) ([6]; Day 1, 0.01% Compound 20, 50 μL eye drop): −2.9 ± 1.1 mmHg
- The maximum magnitude of the reduction in intraocular pressure ([6]; Day 1, 0.01% Compound 20, versus control eye): 18.7%
- The magnitude of intraocular pressure reduction (ΔIOP) (mmHg) ([6]; Day 1, 0.03% Compound 20, 50 μL eye drop): −4.3 ± 1.2 mmHg
- The maximum magnitude of the reduction in intraocular pressure ([6]; Day 1, 0.03% Compound 20, versus control eye): 28.3%
- The magnitude of intraocular pressure reduction (ΔIOP) (mmHg) ([6]; Day 1, 0.10% Compound 20, 50 μL eye drop): −5.3 ± 0.6 mmHg
- The maximum magnitude of the reduction in intraocular pressure ([6]; Day 1, 0.10% Compound 20, versus control eye): 32.2%
- The magnitude of intraocular pressure desc (ΔIOP) (mmHg) ([6]; Day 3, 0.01% Compound 20, once a day): −2.7 ± 0.8 mmHg
- The maximum magnitude of the reduction in intraocular pressure ([6]; Day 3, 0.01% Compound 20, versus control eye): 15.4%
- The magnitude of intraocular pressure desc (ΔIOP) (mmHg) ([6]; Day 3, 0.03% Compound 20, once a day): −5.1 ± 1.2 mmHg
- The maximum magnitude of the reduction in intraocular pressure ([6]; Day 3, 0.03% Compound 20, versus control eye): 30.5%
- The magnitude of intraocular pressure desc (ΔIOP) (mmHg) ([6]; Day 3, 0.10% Compound 20, once a day): −5.2 ± 1.3 mmHg
- The maximum magnitude of the reduction in intraocular pressure ([6]; Day 3, 0.10% Compound 20, versus control eye): 32.6%
- maximum effect (Emax) dose in the normal intraocular pressure rabbit model ([6]; eye drop concentration): 0.03%
- Tmax ([6]; rabbit, in vivo, dihydrochloride): 6 h and 8 h
- IC50 (ROCK1): 1 to 10 nM
- content in the aqueous humor after administration ([7]; normal rabbits): can reach the requirement of ROCK inhibition
- drug concentration at the target tissue (iris and ciliary body, aqueous humor) ([7]; rabbit eyes with normal intraocular pressure): reaches the target effect IC90 or more within 8 hours
- state of the cornea (cornea of rabbit eyes): free of damage and turbidity
- side effects, such as pink eye (normal macaques): without obvious side effects
- effect of reducing intraocular pressure compared with 0.02% AR-13324 (normal macaques; once a day): equivalent to or better than that of AR-13324
- reduction of intraocular pressure in percent ([4]; eye drop containing 0.03%): about 15.3%
- reduction of intraocular pressure in percent ([4]; eye drop containing 0.1%): about 28.8%
- IC50 (MYLK4): 10 to 100 nM

SMILES: C[C@H]1CNCCCN1S(=O)(=O)c1cccc2cncc(F)c12 [Ripasudil]
- incidence of mild conjunctival hyperemia (humans): up to 75%

SMILES: C[C@@H]1C[C@H]2[C@@H]3CCC4=CC(=O)C=C[C@]4(C)[C@@]3(F)[C@@H](O)C[C@]2(C)[C@@]1(O)C(=O)CO [dexamethasone]
- expression level of MYLK-4 [8]: higher than that of normal HTM cells

Reference: US11608319B2, “Beta-amino acid derivative, kinase inhibitor and pharmaceutical composition containing the same, and method for performing an in vivo related application that benefits from the inhibition of a kinase” (Industrial Technology Research Institute, priority 2019, dated 2023)
